These results are taken from patent US20200390825A1, “PLURIPOTENT STEM CELL-DIRECTED MODEL OF AUTOSOMAL DOMINANT POLYCYSTIC KIDNEY DISEASE FOR DISEASE MECHANISM AND DRUG DISCOVERY” (University of Southern California, priority 2019, published 2020).

For series [1], the system named is PKD2−/− organoids. The experiment in a line: Primary protein kinase inhibitor screen for cyst formation in mini-kidney organoids. In kind it is cell-based, human. The conditions noted are these: 1 μM, 9 wells on 3 plates per compound. The procedure: The autoclaved methylcellulose was dissolved in 60° C. 450 ml of Advanced RPMI 1640 Medium (Gibco, 12633020).
Several commercially available libraries of pathway annotated protein kinase inhibitors were purchased from Calbiochem for screening: EMD protein kinase inhibitor 1 (Cat. No. 539744); EMD-protein kinase inhibitor-2 (Cat. No. 539745); EMD protein kinase inhibitor-3 (Cat. No. 539746); EMD protein kinase inhibitor-4 (Cat. No. 539747). All screens were carried out in the Choi Family Therapeutic Screening Facility in the Broad-CIRM center.
Protein kinase inhibitors were diluted in DMSO to make 10 μM stocks. […] The plates were loaded on the ImageXpress Micro System for live imaging right after compounds were loaded. The imaging was performed using the “Standard” algorithm, at 4× magnification, 2 camera binning, with laser-based and image-based focusing enabled, and well-to-well autofocus was set to “focus on plate bottom and well bottom”.
To gain new insight into pathways specifically regulating cystic growth and to validate the mini-organoid system as a robust drug screening tool, we screened a commercial library of pathway annotated protein kinase inhibitors (FIG. 19). The primary screen was performed using a library of 247 protein kinase inhibitors (PKIs) (at 1 μM) on PKD2−/− organoids, with 9 wells on 3 separate plates per compound. […] To increase the stringency of the screen, only compounds identified as “hits” in all 9 wells were considered true “hits” and selected for a secondary screen.

Series [2] concerns PKD2−/− organoids. The following applies: for Inhibition of cyst formation / cystic growth: PKD2−/− mutant organoids, 0.1 μM. The method, then: (§1) 15 g of methelcellulose powder (Sigma-Aldrich, M0512) was autoclaved in a 500-ml Erlenmeyer flask. The autoclaved methylcellulose was dissolved in 60° C. 450 ml of Advanced RPMI 1640 Medium (Gibco, 12633020). 50 ml of Advanced RPMI 1640 Medium+1× Glutamax (Gibco, 35050079) and 1% Penicillin-Streptomycin (Invitrogen, 15070063) was then added at room temperature to a final volume of 500 ml. The final stock solution was cleared by centrifugation at 4000×g for 2 hours. The clear viscous supernatant was used for the spheroid assay. For mini-organoids culture and imaging, 170 μl of 20% methycellulose stock solution+80% basal differentiation media mix was added to each well of a 96-well plate (brand).
(§2) At dd13, miniature kidney organoids were transferred from the EZSPHERE plates to a sterile 35-mm dish by gentle pipetting with wide-bore P1000 tips. Under a dissecting microscope, 10-12 mini-organoids in 10 μl of media were picked up using a P20 pipetman and released into a well of the methylcellulose plate. A P20 pipette tip was then used to adjust the mini-organoids' positions in the well to avoid clustering. The mini-organoids then dispersed at the bottom of the well.
Compounds that were scored as true “hits” from the primary screen were selected for validations in both PKD1−/− and PKD2−/− mutant organoids. The compounds were diluted in DMSO to 1, 10 or 100 μM via serial dilution to make the working stocks. At dd14, 20 μl of each diluted compound or DMSO was added to a methylcellulose well with embedded organoids (180 μl) to achieve a final concentration of 0.1, 1 or 10 μM. The plates were imaged for 7 days using the ImageXpress Micro System as described above.
Compounds that inhibited cyst formation in both PKD1−/− and PKD2−/− mini-organoids were classified as final “hits”.
Tolvaptan is the first FDA approved pharmacological treatment for ADPKD targeting cAMP levels through the inhibition of AVPR2.
We examined dosage-dependent responses by applying 3 different compound concentrations of each compound: 0.1, 1 and 10 μM.

In series [3] the test system is PKD1−/− organoids. In words: Secondary screen of cystogenesis, dosage-dependent responses. The series is classed as cell-based, human. The method, then: as §1, §2
Compounds that were scored as true “hits” from the primary screen were selected for validations in both PKD1−/− and PKD2−/− mutant organoids. […]

For the compound `Cc1ncc2ccccc2c1C#N` [4-Cyano-3-methylisoquinoline], the “Primary screen outcome at dd20 (cystic growth / cell growth inhibition)” value in series [1] is “more specific inhibition of cystic growth”.

Regarding `CC(C)C[C@H](NC(=O)[C@H](CCc1ccccc1)NC(=O)CN1CCOCC1)C(=O)N[C@@H](Cc1ccccc1)C(=O)N[C@@H](CC(C)C)C(=O)[C@@]1(C)CO1` [Carfilzomib], in series [2], the “Inhibition of cyst formation / cystic growth” value is “prevented cyst formation effectively”. Moreover, the “Concentration at which cyst formation was prevented” value in series [3] (PKD1−/− cystic organoids, tested 0.1, 1, 10 μM) was “only at the highest concentration”. For `O=C1NCCc2[nH]c(-c3ccncc3)cc21` [Cdc7/Cdk9 inhibitor], the “Primary screen outcome at dd20 (cystic growth / cell growth inhibition)” value in series [1] is reported as “more specific inhibition of cystic growth”. `O=C1NC(=NCc2cccs2)S/C1=C\c1ccc2ncccc2c1` [Cdk1 inhibitor IV RO-3306]: the “Primary screen outcome at dd20 (cystic growth / cell growth inhibition)” value in series [1] was “more specific inhibition of cystic growth”. Turning to `CC1=C(O)C(=O)C=C2C1=CC=C1[C@@]2(C)CC[C@@]2(C)[C@@H]3C[C@](C)(C(=O)O)CC[C@]3(C)CC[C@]12C` [Celastrol], in series [2] (PKD2−/− organoids, 10 μM), the “Effect on cell growth” value was “more broadly detrimental to cell growth”. In series [2] (PKD2−/− organoids, at 1), the “Screen outcome category” value is reported as “hit”.

`O=C(c1ccc(Nc2nccc(-c3cc4ccccc4s3)n2)cc1)N1CCC(N2CCCC2)CC1` [IKK inhibitor VII]: in series [1], the “Primary screen outcome at dd20 (cystic growth / cell growth inhibition)” value is “more specific inhibition of cystic growth”.

`NC(=O)Nc1sc(-c2ccccc2)cc1C(N)=O` [IKK-2 inhibitor VI, (5-phenyl-2-ureido)thiophene-3-carboxamide]: the “Primary screen outcome at dd20 (cystic growth / cell growth inhibition)” value in series [1] was “more specific inhibition of cystic growth”.

Regarding `Nc1ncnc2n[nH]c(Nc3ccc(F)cc3)c12` [MNK1 inhibitor], in series [1], the “Primary screen outcome at dd20 (cystic growth / cell growth inhibition)” value is listed as “more specific inhibition of cystic growth”. On to `Nc1ccc2ncnc(NCCc3ccc(Oc4ccccc4)cc3)c2c1` [NF-κB activation inhibitor], for which the “Inhibition of cyst formation / cystic growth” value in series [2] is recorded as “highly effective inhibiting cystic growth”. Besides, in series [3] (PKD1−/− mutants, 0.1 μM), the “Inhibition of cystic growth” value is recorded as “highly effective inhibiting cystic growth”. Consider `COc1cccc(-c2cc(=O)c3ccccc3o2)c1N` [PD 98059], for which, in series [1], the “Primary screen outcome at dd20 (cystic growth / cell growth inhibition)” value is “more specific inhibition of cystic growth”. Take `CN[C@@H]1C[C@H]2O[C@@](C)([C@@H]1OC)n1c3ccccc3c3c4c(c5c6ccccc6n2c5c31)C(=O)N[C@H]4O` [UCN-02, 7-epi-hydroxystaurosporine]: the “Primary screen outcome at dd20 (cystic growth / cell growth inhibition)” value in series [1] is “more specific inhibition of cystic growth”. Turning to `O=C1c2ccccc2-[n+]2ccc3c([nH]c4ccccc43)c21` [fascaplysin], the “Primary screen outcome at dd20 (cystic growth / cell growth inhibition)” value in series [1] was “more specific inhibition of cystic growth”.
